{"source": "patent US7592421B1", "about": "“HLA class II peptide mimics” (Health Research, Inc., priority 2003, dated 2009)", "key": {"[1]": {"test_system": "mAb TP25.99, which recognizes HLA class I antigens", "experiment": "Inhibition of binding of control mAb TP25.99 (specificity control)", "conditions": "FIG. 1E", "experimental": "This Example illustrates the ability of the peptide mimics to bind to anti-HLA class II mAbs. The synthetic peptides were tested by ELISA for their ability to bind to anti-HLA class II mAb H2-27.F5.2G4, HT214.F2.H6.4F4, LGII612.14 and TP117.6. JH1 and JHT1 were also tested for their ability to inhibit the binding of anti-HLA class II mAb H2-27.F5.2G4 (FIG. 1B), HT214.F2.H6.4F4 (FIG. 1A), LGII612.14 (FIG. 1C) and TP117.6 (FIG. 1D) to HLA class II bearing cells LGL2 cells. H2-27.F5.2G4, LGII-612.14 and HT214.F2.H6.4F4 are monoclonal antibodies (mAb) that recognize HLA class II antigens. TP25.99 is a monoclonal antibody (mAb) which recognizes HLA class I antigens and is used in FIG. 1E as a control. LG2 is a human lymphoid cell line which expresses HLA class II antigens on its cell surface. P763.74 is a High Molecular Weight-Melanoma Associated Antigen (HMW-MAA) peptide mimic isolated using the anti-HMW-MAA mAb 763.74 and is used in FIGS. 1A-1C as a control peptide. The peptides were considered to be mimics of HLA class II antigens if they could inhibit the binding of any of the four anti-HLA class II mAb (H2-27, F5.2G4, HT214.F2.H6.4F4, LGII612.14 and TP117.6) to HLA class II bearing cells."}, "[2]": {"test_system": "HLA class II antigens of LG2 lymphoid cells", "experiment": "Flow cytometry of immune sera with LG2 lymphoid cells", "format": "cell-based, human", "conditions": "sera of immunized BALB/c mice, day 35; FIG. 4A", "from_the_text": "(§1) HLA-DR transgenic mice express HLA-DR molecules. The promoter that is used to drive DR expression in the transgenic mice is H2 Ea promoter (pDOI-5 expression vector). This vector directs the expression of cDNA to cells which normally display class II molecules. HLA-DR transgenic mice were utilized as a model to test whether HLA class II peptide mimics can break tolerance to self-antigen. HLA-DR transgenic mice were immunized with peptide JH1 and JHT1 conjugated to keyhole limpet hemocyanin (KLH) and mixed with complete Freund's adjuvant for priming and with incomplete Freund's adjuvant for boosting. […] These experiments utilized LG2 cells as described in Example 2 and MOLT-4 cells. […] It was used as a control. Sera used for testing reactivity with HLA class II antigens was harvested on day 35 from BABL/c mice for FIGS. 2 and 4 and on day 70 from HLA-DR transgenic mice in FIG. 3. For FIGS. 2, 3 and 4, preimmune serum was harvested one week before the first immunization and was used as a control. […] One intradermal injection with HLA class II bearing LG2 cells enhanced the immune response to HLA class II antigens."}, "[3]": {"experiment": "Side effects in immunized mice", "format": "in vivo", "conditions": "peptide-KLH, Freund's adjuvant", "from_the_text": "as §1"}, "[4]": {"test_system": "immunizing peptides; HLA class II", "experiment": "Antibody titers in sera of immunized mice", "format": "in vivo", "conditions": "peptide-KLH, Freund's adjuvant; FIGS. 2-4", "from_the_text": "as §1"}, "HLA class II antigens [5]": {"test_system": "HLA class II antigens", "experiment": "Immunization of BALB/c mice, serum reactivity with HLA class II antigens", "format": "in vivo", "conditions": "peptide conjugated to KLH with Freund's adjuvant, sera day 35, FIG. 2", "from_the_text": "as §1"}, "HLA class II antigens [6]": {"test_system": "HLA class II antigens", "experiment": "Immunization of HLA-DR transgenic mice, breaking of self-tolerance", "format": "in vivo", "conditions": "peptide conjugated to KLH with Freund's adjuvant, sera day 70, FIG. 3", "from_the_text": "as §1"}, "[7]": {"test_system": "mAb TP117.6 binding to HLA class II antigens on LG2 cells", "experiment": "Inhibition of binding of mAb TP117.6 to HLA class II bearing LG2 cells", "set-up": "species or system human", "conditions": "FIG. 1D", "experimental": "(§2) Peptide mimics of HLA class II antigen can be isolated by panning phage display peptide libraries with anti-HLA class II antigen mAbs. Anti-HLA class II antigen mAbs can be used to isolate phage that display antibody reactive peptides. After phage panning, the binding ability of isolated phage colonies to anti-HLA class II antigen mAbs is tested with immunoscreening and further confirmed by enzyme-linked immunosorbent assay (ELISA). Anti-HLA class II antigen antibody reactive phage clone and the same phage without displaying peptides, can be utilized as a positive and a negative controls respectively in the immunoscreening and ELISA. In the positive phage clones, the DNA inserts that encode the antibody reactive peptides can be sequenced. Peptides can be synthesized based on the sequences of the DNA inserts. The synthesized peptides are tested in ELISA to determine their binding reactivity with corresponding anti-HLA class II antigen mAbs. The ability of synthetic peptides to inhibit the binding of anti-HLA class II antigen mAbs to HLA class II antigen can be tested in an inhibition assay with HLA class II antigen-positive cell lines. The synthetic peptides that inhibit or block the binding of anti-HLA class II antigen mAbs to HLA class II antigen can be tested as active immunotherapy candidates. […]"}, "[8]": {"test_system": "mAb HT214.F2.H6.4F4 binding to HLA class II antigens on LG2 cells", "experiment": "Inhibition of binding of mAb HT214.F2.H6.4F4 to HLA class II bearing LG2 cells", "set-up": "species or system human", "conditions": "FIG. 1A; negative control peptide 673.74", "experimental": "as §2"}, "MOLT-4 lymphoid cells": {"test_system": "MOLT-4 lymphoid cells", "experiment": "Flow cytometry of immune sera with control MOLT-4 lymphoid cells", "format": "cell-based, human", "conditions": "sera of immunized BALB/c mice, day 35; MOLT-4 does not express HLA class II; FIG. 4B", "from_the_text": "as §1"}, "[9]": {"test_system": "anti-HLA class II mAb HT214.F2.H6.4F4", "experiment": "ELISA binding of synthetic peptide to mAb HT214.F2.H6.4F4", "conditions": "ELISA and inhibition assay", "experimental": "as §2"}, "[10]": {"test_system": "mAb LGII-612.14 binding to HLA class II antigens on LG2 cells", "experiment": "Inhibition of binding of mAb LGII-612.14 to HLA class II bearing LG2 cells", "set-up": "species or system human", "conditions": "FIG. 1C; negative control peptide 673.74", "experimental": "as §2"}, "[11]": {"test_system": "anti-HLA class II mAb LGII-612.14", "experiment": "ELISA binding of synthetic peptide to mAb LGII-612.14", "conditions": "ELISA and inhibition assay", "experimental": "as §2"}, "[12]": {"test_system": "anti-HLA class II mAb H2-27.F5.2G4", "experiment": "ELISA binding of synthetic peptide to mAb H2-27.F5.2G4", "conditions": "ELISA and inhibition assay", "experimental": "as §2"}, "[13]": {"test_system": "mAb H2-27.F5.2G4 binding to HLA class II antigen on LG2 cells", "experiment": "Inhibition of binding of mAb H2-27.F5.2G4 to HLA class II bearing LG2 cells", "set-up": "species or system human", "conditions": "FIG. 1B; negative control peptide 673.74", "experimental": "as §2"}}, "note": "“Also recorded” adds a separate entry of the source.", "data": [{"sequence": "KCPLDPKGLNCV (unknown synthesized peptide JHT1) [HLA class II peptide mimic isolated by panning with mAb HT214.F2.H6.4F4]", "values": [{"measurement": "inhibition of binding of mAb TP25.99 (anti-HLA class I, control)", "setting": "[1]", "result": "do not inhibit binding"}, {"measurement": "reactivity of immune sera with HLA class II antigens of LG2 lymphoid cells (flow cytometry)", "setting": "[2]", "result": "reactivity"}, {"measurement": "side effects in immunized mice", "setting": "[3]", "result": "No obvious side effects"}, {"measurement": "anti-HLA class II antibodies in sera of immunized mice", "setting": "[4]", "result": "detected in the sera of immunized mice at lower titers"}, {"measurement": "antibodies to the immunizing peptides in sera of immunized mice", "setting": "[4]", "result": "high-titer antibodies to the immunizing peptides were detected"}, {"measurement": "humoral immune response against HLA class II antigens", "setting": "HLA class II antigens [5]", "result": "elicits a humoral immune response against HLA class II antigens; also recorded: also induced a humoral response against HLA class II antigens"}, {"measurement": "breaking self-tolerance, humoral immune response against HLA class II antigens", "setting": "HLA class II antigens [6]", "result": "can break self-tolerance and elicit a humoral immune response against HLA class II antigens; also recorded: can also break self-tolerance"}, {"measurement": "inhibition of binding of mAb TP117.6 to HLA class II antigens on LG2 cells", "setting": "[7]", "result": "can inhibit binding"}, {"measurement": "inhibition of binding of mAb HT214.F2.H6.4F4 to HLA class II antigens on LG2 cells", "setting": "[8]", "result": "inhibits binding of mAb HT214.F2.H6.4F4 to HLA class II antigens to LG2 cells in a dose-dependent manner"}, {"measurement": "reactivity of immune sera with control MOLT-4 lymphoid cells (flow cytometry)", "setting": "MOLT-4 lymphoid cells", "result": "lack of reactivity"}, {"measurement": "reaction with the combining site of mAb HT214.F2.H6.4F4", "setting": "[9]", "result": "reacted with the combining sites"}]}, {"sequence": "SCLRAGGWVCCK (unknown synthesized peptide JH1) [HLA class II peptide mimic isolated by panning phage display libraries with mAb H2-27.F5.2G4 and LGII-612.14]", "values": [{"measurement": "inhibition of binding of mAb TP25.99 (anti-HLA class I, control)", "setting": "[1]", "result": "do not inhibit binding"}, {"measurement": "reactivity of immune sera with HLA class II antigens of LG2 lymphoid cells (flow cytometry)", "setting": "[2]", "result": "reactivity"}, {"measurement": "inhibition of binding of mAb LGII-612.14 to HLA class II antigens on LG2 cells", "setting": "[10]", "result": "inhibits binding of mAb LGII-612.14 to HLA class II antigens on LG2 cells in a dose-dependent manner"}, {"measurement": "side effects in immunized mice", "setting": "[3]", "result": "No obvious side effects"}, {"measurement": "anti-HLA class II antibodies in sera of immunized mice", "setting": "[4]", "result": "detected in the sera of immunized mice at lower titers"}, {"measurement": "antibodies to the immunizing peptides in sera of immunized mice", "setting": "[4]", "result": "high-titer antibodies to the immunizing peptides were detected"}, {"measurement": "reaction with the combining site of mAb LGII-612.14", "setting": "[11]", "result": "reacted with the combining sites"}, {"measurement": "humoral immune response against HLA class II antigens", "setting": "HLA class II antigens [5]", "result": "elicits a humoral immune response against HLA class II antigens; also recorded: induced a humoral response against HLA class II antigens"}, {"measurement": "breaking self-tolerance, humoral immune response against HLA class II antigens", "setting": "HLA class II antigens [6]", "result": "can break self-tolerance and elicit a humoral immune response against HLA class II antigens"}, {"measurement": "inhibition of binding of mAb TP117.6 to HLA class II antigens on LG2 cells", "setting": "[7]", "result": "can inhibit binding"}, {"measurement": "reaction with the combining site of mAb H2-27.F5.2G4", "setting": "[12]", "result": "reacted with the combining sites"}, {"measurement": "reactivity of immune sera with control MOLT-4 lymphoid cells (flow cytometry)", "setting": "MOLT-4 lymphoid cells", "result": "lack of reactivity"}, {"measurement": "inhibition of binding of mAb H2-27.F5.2G4 to HLA class II antigen on LG2 cells", "setting": "[13]", "result": "inhibits binding of mAb H2-27.F5.2G4 to HLA class II antigen on LG2 cells in a dose-dependant manner"}]}]}
